This is an account of results in patent publication US12509421B2, “Preparation and application of deuterated 4-phenyl-4-piperidinols” (priority 2022, dated 2025).

The target of data set [1] is T1, κOR (Homo sapiens, UniProt P41145).
T1 construct: expressed in transfected cells; host or cells: CHO cells
The data set is described as follows: Opioid receptor competitive binding test, κOR. The settings on record: [3H]-labeled ligand, CHO cell membranes, ± SD of three measurements; for κOR binding rate: compound at 10 μM. Here is the method: (§1) CHO cells expressing p opioid receptor, δ opioid receptor and K opioid receptor are cultured in a 10 cm^2 Petri dish (F-12 medium+10% newborn bovine serum) for several days, and the culture solution is sucked after the cells grew to the bottom of the dish. 3 ml PBS/EDTA solution (0.1M NaCl, 0.01M NaH2PO4, 0.04% EDTA) is added for digestion for 3-5 minutes. The cells are blown with a straw to get fall off completely, collected in a 40 ml centrifuge tube, centrifuged at 5000 rpm for 5 minutes, and removed with the supernatant. The centrifuge tube is added with ice-cold homogenate (50 mM HEPES PH 7.4, 3 mM MgCl2, 1 mM EGTA). The solution and precipitate are transferred to homogenizer for homogenization; Then the homogenate is transferred into a centrifuge tube, centrifuged at 18000 rpm for 15 minutes, and centrifuged twice; the obtained precipitate is added with an appropriate amount of buffer solution of 50 mM Tris-HCl and pH 7.4, homogenized and sub-packaged in centrifuge tubes. The product is stored in a refrigerator at −70° C. for later use.
(§2) 20-30 μg expressed membrane receptor protein and [3H]-labeled ligand (1-2 nM) are added to the total binding tube, added with 1 μM of corresponding ligand to the corresponding nonspecific binding tube. Various screened opioid ligand drugs (see the drug compounds in Table 1 below) are added to the sample tube with 100 μL final volume. The sample is incubated at 30° C. for 30 minutes, and the reaction is terminated in ice water. The glass fiber filter paper gF/C (whatman) is used for negative pressure filtration on Millipore sample collector. The sample is eluted with 4 ml 50 mm tris-HCl (pH 7.4) for three times, dried with the filter paper, put in 0.5 ml Eppendorf tube and added with 0.5 ml lipophilic scintillation liquid. The radioactive intensity is measured with PERKIN ELMER PRI-CARB 2910 liquid scintillation counter with calculation of the inhibition rate. The experiment is repeated for more than three times, with three compound tubes in each group. Inhibition rate(or binding rate)=(total binding rate dpm−sample tube dpm)/(total binding tube dpm-nonspecific binding tube dpm)×100%
(§3) IC50 is calculated with Prism 5.0 software. The Ki value is calculated according to the following formula: Ki=IC50/(1^+[L]/Kd), wherein [L] is the concentration of the added labeled ligand, and Kd is the equilibrium dissociation parameter of the labeled ligand.

In data set [2] the target is T2, μOR (Homo sapiens, UniProt P35372).
T2 construct: expressed in transfected cells; host or cells: CHO cells
The data set is described as follows: Opioid receptor competitive binding test, μOR. The conditions noted are these: [3H]-labeled ligand, CHO cell membranes, ± SD of three measurements; for μOR binding rate: compound at 10 μM. Here is the method: as §1, §2, §3

Data set [3] deals with T3, δOR (Homo sapiens, UniProt P41143).
T3 construct: expressed in transfected cells; host or cells: CHO cells
The data set is described as follows: Opioid receptor competitive binding test, δOR. The conditions noted are these: [3H]-labeled ligand, CHO cell membranes, ± SD of three measurements; for δOR binding rate: compound at 10 μM. How it is done:
as §1, §2, §3

Data set [4] concerns Female Kunming mice. The data set is described as follows: Hot plate analgesia test in mice. It counts as in vivo. The settings on record: 55° C. hot plate. Here is the method:
Female Kunming mice weighing about 20 g are placed on a hot plate instrument preheated to 55° C., and the latency of licking hind feet or lifting hind feet is used as the pain threshold index. Animals are screened before the experiment, and animals with latency less than 5 s or more than 30 s are excluded. To prevent foot burns, the longest observation time is set to 60s. The basic pain threshold is the average of two measurements, and the interval between the two measurements is 5 minutes. The pain threshold of mice in each group is determined at 15 minutes, 30 minutes, 60 minutes and 120 minutes after intraperitoneal administration. The effective percentage of analgesia (% MPE) is calculated according to the following formula
[formula] According to the effective percentage of analgesia, the ED50 value is calculated by graphpad prism 5.0 software.

Data set [5] concerns the target hERG potassium channel (Homo sapiens, UniProt Q12809). As to the kind of experiment: hERG potassium channel whole-cell patch clamp (HEK293). The conditions noted are these: for IC50: HEK293 cells stably expressing hERG, whole-cell patch clamp, room temperature, read-out: Half-inhibition concentration of compounds to be tested on hERG (IC50). Also noted: expressed in transfected cells; host or cells: HEK293 cell line. It counts as cell-based. The source says:
The rapidly activated potassium channel encoded by human ether-a-go-go-related gene (hERG) is an important ion channel involved in the formation of phase 3 repolarization of myocardial action potential. […] Drug-induced delayed ventricular repolarization may cause fatal arrhythmia-torsade de pointes in some cases. According to statistics, about 25-40% of the lead compounds show different degrees of hERG-related toxicity, and many drugs are withdrawn from the market because they may lead to the risk of QT interval extension. At present, National Medical Products Administration also requires hERG/IKr safety evaluation data before clinical trial application (IND) of new drugs under study. • 1. Whole-cell patch clamp technique is used to study the inhibitory effect of compounds on hERG potassium channels: • 1) the compound to be tested is stored with physiological saline prepared into 10 mM liquid. The test stock solution is diluted with physiological saline into 3 mM, 1 mM and 0.3 mM diluents in turn. […] The old culture medium removed and is washed once with PBS, then added with 1 mL TrypLE™ Express solution and incubated at 37° C. for about 0.5 minutes. When the cells are detached from the bottom of the dish, about 5 ml complete medium preheated is added at 37° C. The cell suspension is gently blown with a straw to separate the aggregated cells. The cell suspension is transferred to a sterile centrifuge tube and centrifuged at 1000 rpm for 5 minutes to collect cells. […] The clamping voltage is depolarized from −80 mV to −50 mV for 0.5 seconds (as leakage current detection), then stepped to 30 mV for 2.5 seconds, and then quickly recovered to −50 mV for 4 seconds, which can excite the tail current of hERG channel. Data are collected repeatedly every 10s to observe the effect of drugs on hERG tail current. 0.5 seconds-50 mV stimulation is used as leakage current detection. The test data are collected by IPA amplifier (Sutter Instrument) and stored in SutterPatch software.
Capillary glass tube is drawn into recording electrode by microelectrode drawing instrument. Under the inverted microscope, the microelectrode manipulator is operated to contact the recording electrode with the cell, and negative pressure suction is given to form a GΩ seal. After the GΩ seal is formed, rapid capacitance compensation is carried out, and then negative pressure is continuously applied to break the cell membrane, forming a whole cell recording mode. Then the slow capacitance is compensated and the film capacitance and series resistance are recorded. No leakage compensation is given.
When the hERG current recorded in the whole cell is stable, the drug is administered, and the next concentration is detected after each drug concentration acts for 5 minutes (or the current is stable), and multiple concentrations are detected for each test compound. The cover glass covered with cells is placed in the recording bath in an inverted microscope, and the test compound and the external liquid containing no compound flowed through the recording bath from low concentration to high concentration by gravity perfusion method, so as to act on the cells, and liquid exchange is carried out by using a vacuum pump during recording. The current detected by each cell in the external fluid without compounds is used as its own control group.
At least two cells are used to detect each concentration independently and repeatedly twice. All electrophysiological tests are conducted at room temperature.
Firstly, the current after each drug concentration and the blank control current are standardized
[formula] followed by the calculation of the inhibition rate
[formula] corresponding to each drug concentration, the average and standard deviation for each concentration, and the semi-inhibition concentration of each compound with the following equation: […]
The dose-dependent effect is nonlinear fitted by the above equation, and IC50 is semi-inhibitory concentration.
For orientation: Block of hERG is tested as a sign of cardiac risk.

Data set [6] deals with ICR mice. As to the kind of experiment: Evaluation of side effects of constipation (defecation time, number, weight). Format: in vivo. The settings on record: 7.5 mg/kg. Here is the method:
Constipation side effect is a common side effect of opioid drugs. This patent evaluates the possibility of constipation side effect by the influence of the compound on defecation time, defecation quantity and defecation weight of experimental animals.
ICR mice are randomly divided into 6 groups with 10 mice in each group after adaptive feeding. Fasting for 16-24 h, without stopping drinking, the blank control group is given solvent, during which the normal diet is: (1) the blank control group; (2) Compound diphenoxylate (7.5 mg/kg) group; (3) Low dose (1 mg/kg) group; (4) High dose (5 mg/kg) group of the compound to be tested.
After administration for 30 minutes, the mice in each group are given Chinese ink by gavage. After administration, the mice are kept in a single cage, and the excretion time of the first black stool is recorded. The number and weight (wet weight) of defecation particles in each mouse within 5 hours after administration are recorded. each group of mice are placed in an IVC cage with clean filter paper. The feces of each mouse are collected, put into a sterile 1.5 ml EP tube and stored in an ice box. During the collection, the number of defecation particles of each mouse is recorded, and the wet weight is weighed. After the collected feces are dried, the dry weight of the feces is recorded. Drying conditions: put fresh feces in an oven and bake at 100° C. for 5-10 minutes until the dry weight of feces is constant. The following formula is used to calculate the water content of feces, and the water content of feces (%)=(wet feces mass−dry feces mass)/wet feces mass×100%.
The data required for measurement and observation in this experiment are recorded in the corresponding table. All data are statistically processed by Microsoft Excel, and expressed as “mean standard error”. The data of each group are statistically analyzed by SPSS software package.

Structures can show the parent of a compound that is named as a salt. Where two headings read alike, the source gives them in different places.

For `CN(C)C[C@@H]1CN(S(=O)(=O)Cc2ccccc2)CC[C@@]1(O)c1cccc(O)c1.Cl` [Example 22 of CN201911076305.X, (3R, 4S)-1-(benzylsulfonyl)-3-(dimethylamino)methyl)-4-(3-hydroxyphenyl)-4-piperidinol hydrochloride, reference compound], the Ki (commonly the equilibrium dissociation constant of an inhibitor or competing ligand from its target) in data set [1] is 33.7 ± 3.26 nM; in data set [2] it was 0.17 nM; in data set [3] it was 1100 ± 42 nM.
Take `[2H]C([2H])([2H])Oc1cccc(C2(O)CCN(S(=O)(=O)Cc3ccccc3)CC2CN(C)C([2H])([2H])[2H])c1` (centres unmarked) [I-2hydrochloride]: the κOR binding rate in data set [1] came to 23.8 ± 1.9%. The “Maximum analgesic effective percentage (% MPE), hot plate” value in data set [4] (10 mg/kg, intraperitoneal) was determined as 100%. The molecule also came in with a μOR binding rate in data set [2] of 24.75 ± 3.1%. In data set [3], this molecule returned a δOR binding rate of 10.9 ± 1.2%.
`[2H]C([2H])([2H])Oc1cccc([C@]2(O)CCN(S(=O)(=O)Cc3ccccc3)C[C@H]2CN(C)C([2H])([2H])[2H])c1` [II-6hydrochloride] displayed a κOR binding rate in data set [1] of 14.5 ± 3.1%. The ED50 (usually the dose at which the effect has come halfway, by size or by number of responders) in data set [4] (Mus musculus, ip, intraperitoneal) amounted to 0.79 mg/kg. In data set [2], this molecule came in with a μOR binding rate of 28.4 ± 2.0%. Further, the δOR binding rate in data set [3] is listed as 10.5 ± 1.7%.
The molecule `[2H]C([2H])([2H])Oc1cccc(C2(O)CCN(C(=O)Cc3cc(F)c(F)cc3F)CC2CN(C)C([2H])([2H])[2H])c1` (centres unmarked) [I-6hydrochloride] registered a κOR binding rate in data set [1] of 20.5 ± 2.3%. For the same molecule, the “Maximum analgesic effective percentage (% MPE), hot plate” value in data set [4] (10 mg/kg, intraperitoneal) is 100%. The same molecule registered a μOR binding rate in data set [2] of 21.0 ± 3.0%. In data set [3], this molecule gave a δOR binding rate of 11.6 ± 1.7%.
`COc1cccc(C2(O)CCCCC2CN(C)C)c1` (centres unmarked) [Tramadol, reference compound] had a κOR binding rate in data set [1] of 0%. Besides, in data set [4] (50 mg/kg dosage), the “Maximum analgesic effective percentage (% MPE), hot plate” value is listed as 64.5% ((50 mg/kg/dosage). Also, the μOR binding rate in data set [2] is 6.0 ± 0.4%. Besides, the δOR binding rate in data set [3] was 0%.
As to `CN(C)C[C@@H]1CN(S(=O)(=O)Cc2ccccc2)CC[C@@]1(O)c1cccc(O)c1.Cl` [Example 22 of CN201911076305.X, reference compound], the “hERG inhibition grade” value is “moderate inhibitory effects on hERG” in data set [5] (listed as Example 22 of patent CN201911076305.X, hydrochloride) and “μM(Moderate intensity inhibition)” in data set [5] (listed as example 22 of the prior art of CN201911076305.X, hydrochloride).
Take `CCOC(=O)C1(c2ccccc2)CCN(CCC(C#N)(c2ccccc2)c2ccccc2)CC1` [Diphenoxylate, reference compound]: the “Number of defecating animals” value in data set [6] (10 mice per group, within 5 hours) was 10. The same molecule returned a Defecation time in data set [6] (first black stool, x ± SE, only animals that defecate within 5 hours) of 148.4 ± 7.9 min. In data set [6] (only animals that defecate within 5 hours, x ± SE), the “water content of feces” value is given as 41.4 ± 3.7%. Also, the Fecal weight in data set [6] (within 5 hours, x ± SE) was 0.3005 ± 0.0289 g.
In turn, `[2H]C([2H])([2H])Oc1cccc([C@]2(O)CCN(C(=O)Cc3cc(F)c(F)cc3F)C[C@H]2CN(C)C([2H])([2H])[2H])c1` [II-12hydrochloride] came in with a κOR binding rate in data set [1] of 13.6 ± 1.9%. The “Maximum analgesic effective percentage (% MPE), hot plate” value in data set [4] (10 mg/kg, intraperitoneal) came out at 100%. The μOR binding rate in data set [2] stood at 26.3 ± 1.2%. In data set [3], this molecule registered a δOR binding rate of 12.0 ± 3.3%.
On to “(3R,4S)-1-(benzylsulfonyl)-4-(3-hydroxyphenyl)-3-(((methyl(methyl-d3)amino)methyl)-4-piperidinol [II-2hydrochloride]”, for which the inhibition constant Ki in data set [1] came to 25.6 ± 2.72 nM; in data set [2], 0.12 nM; in data set [3], 482 ± 28.4 nM. Also, in data set [5], the “hERG inhibition grade” value is given as “μM((Weak inhibition)”. The IC50 in data set [5] (listed as II-2) was 25.1 µM; in data set [5] (listed as Il-2hydrochloride) it was 14.7 µM.
